Measured values as given in ChEMBL document CHEMBL1201862, “PubChem BioAssay data set” (2004).
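Results reflect a 48-hour exposure of cells in 96-well plates to compound at five concentrations. At the GI50, growth is halved.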 Active and inactive are the calls of the source. Rule as the data show it: active = GI50 up to about 1.1 µM and inactive = higher.

How the values were obtained:
Assay in all cases: growth of human tumour cells (NCI), 48 h
HCC 2998 = test system: HCC 2998
SNB-75 = test system: SNB-75
OVCAR-4 = test system: OVCAR-4
M14 = test system: M14
Malme-3M = test system: Malme-3M
MOLT-4 = test system: MOLT-4
A549 = test system: A549
SR = test system: SR
SF-268 = test system: SF-268
OVCAR-3 = test system: OVCAR-3
NCI-H522 = test system: NCI-H522
SK-MEL-2 = test system: SK-MEL-2
SF-295 = test system: SF-295
UO-31 = test system: UO-31
UACC-62 = test system: UACC-62
OVCAR-8 = test system: OVCAR-8
CCRF-CEM = test system: CCRF-CEM
HL-60 = test system: HL-60

Measured: GI50

CN1C(=O)c2cccc3c([N+](=O)[O-])ccc(c23)C1=O
inactive: HCC 2998 6 µM | SNB-75 12.3 µM | OVCAR-4 13 µM | M14 11.1 µM | Malme-3M 16.2 µM | MOLT-4 5.55 µM | A549 12.7 µM | SR 3.25 µM | SF-268 9.68 µM | OVCAR-3 3.19 µM | NCI-H522 1.36 µM | SK-MEL-2 10.8 µM | SF-295 14.5 µM | UO-31 13.7 µM | UACC-62 1.77 µM | OVCAR-8 6.01 µM | CCRF-CEM 7.24 µM

O=C(O)/C=C/n1c2ccccc2c(=O)c2ccccc21
inactive: HCC 2998 > 100 µM | OVCAR-4 > 100 µM | M14 > 100 µM | Malme-3M > 100 µM | MOLT-4 > 100 µM | A549 > 100 µM | SR > 100 µM | SF-268 > 100 µM | OVCAR-3 > 100 µM | NCI-H522 > 100 µM | SK-MEL-2 > 100 µM | HL-60 > 100 µM | SF-295 > 100 µM | UO-31 > 100 µM | UACC-62 > 100 µM | OVCAR-8 > 100 µM | CCRF-CEM > 100 µM

NC(CCC(=O)NC(CSC(=O)N(O)c1ccccc1)C(=O)NCC(=O)O)C(=O)O (centres undefined)
inactive: HCC 2998 > 1000 µM | SNB-75 > 1000 µM | OVCAR-4 > 1000 µM | M14 > 1000 µM | Malme-3M > 1000 µM | A549 > 1000 µM | SR > 1000 µM | SF-268 > 1000 µM | OVCAR-3 > 1000 µM | NCI-H522 > 1000 µM | SK-MEL-2 > 1000 µM | HL-60 > 1000 µM | SF-295 > 1000 µM | UO-31 918 µM | UACC-62 > 1000 µM | OVCAR-8 > 1000 µM | CCRF-CEM > 1000 µM

CCOC(=O)C1C(=O)C(=O)N2CCc3c([nH]c4ccccc34)C12 (centres undefined)
inactive: HCC 2998 > 100 µM | OVCAR-4 > 100 µM | M14 > 100 µM | Malme-3M > 100 µM | MOLT-4 > 100 µM | A549 > 100 µM | SR > 100 µM | SF-268 > 100 µM | OVCAR-3 > 100 µM | NCI-H522 > 100 µM | SK-MEL-2 > 100 µM | HL-60 > 100 µM | SF-295 > 100 µM | UO-31 > 100 µM | UACC-62 > 100 µM | OVCAR-8 > 100 µM | CCRF-CEM > 100 µM

CCOC(=O)NC(=O)c1cn(CCN2CCNCC2)c(=O)[nH]c1=O
inactive: OVCAR-4 > 100 µM | M14 > 100 µM | MOLT-4 > 100 µM | A549 > 100 µM | SR > 100 µM | SF-268 > 100 µM | OVCAR-3 > 100 µM | NCI-H522 > 100 µM | SK-MEL-2 > 100 µM | HL-60 > 100 µM | SF-295 > 100 µM | UACC-62 > 100 µM | OVCAR-8 > 100 µM | CCRF-CEM > 100 µM

C[N+]1(C)C/C(=C\c2ccc(O)cc2)C(=O)/C(=C/c2ccc(O)cc2)C1
inactive: HCC 2998 > 100 µM | SNB-75 > 100 µM | OVCAR-4 > 100 µM | M14 > 100 µM | Malme-3M > 100 µM | MOLT-4 47.4 µM | A549 37.5 µM | SR 82.4 µM | SF-268 55.7 µM | OVCAR-3 > 100 µM | NCI-H522 > 100 µM | HL-60 19.5 µM | SF-295 63.2 µM | UO-31 > 100 µM | UACC-62 64.9 µM | OVCAR-8 48.2 µM | CCRF-CEM 23.7 µM

COc1ccc(CNc2cnc3cc(N)ccc3n2)cc1OC
inactive: HCC 2998 > 100 µM | SNB-75 > 100 µM | OVCAR-4 > 100 µM | M14 > 100 µM | Malme-3M > 100 µM | MOLT-4 > 100 µM | A549 > 100 µM | SR > 100 µM | SF-268 > 100 µM | OVCAR-3 > 100 µM | NCI-H522 > 100 µM | SK-MEL-2 > 100 µM | HL-60 > 100 µM | SF-295 > 100 µM | UO-31 > 100 µM | OVCAR-8 > 100 µM | CCRF-CEM > 100 µM

Cc1cn(C2CC(CCCO)C(CO)O2)c(=O)[nH]c1=O (centres undefined)
inactive: HCC 2998 > 100 µM | OVCAR-4 > 100 µM | M14 > 100 µM | Malme-3M > 100 µM | A549 > 100 µM | SR > 100 µM | SF-268 > 100 µM | OVCAR-3 > 100 µM | NCI-H522 > 100 µM | SK-MEL-2 > 100 µM | HL-60 > 100 µM | SF-295 > 100 µM | UO-31 > 100 µM | UACC-62 > 100 µM | OVCAR-8 > 100 µM

CC(C)(C)C#COC(=O)c1ccccc1
inactive: HCC 2998 > 100 µM | OVCAR-4 > 100 µM | M14 > 100 µM | Malme-3M > 100 µM | MOLT-4 > 100 µM | A549 > 100 µM | SR > 100 µM | SF-268 > 100 µM | OVCAR-3 > 100 µM | NCI-H522 > 100 µM | SK-MEL-2 > 100 µM | HL-60 > 100 µM | SF-295 > 100 µM | UO-31 > 100 µM | UACC-62 > 100 µM | OVCAR-8 > 100 µM | CCRF-CEM > 100 µM

FC(F)(F)c1ccc2nc(NCc3ccccc3)c(-c3ccccc3)nc2c1
inactive: HCC 2998 29.9 µM | SNB-75 46.2 µM | Malme-3M 25.4 µM | MOLT-4 24.7 µM | A549 26.9 µM | SR 24.9 µM | SF-268 48.1 µM | OVCAR-3 27.6 µM | SK-MEL-2 32.9 µM | HL-60 19.3 µM | SF-295 36 µM | UO-31 25 µM | UACC-62 39 µM | OVCAR-8 86.3 µM | CCRF-CEM 37.2 µM

CCOC(=O)[C@H]1Nc2ccc(Cl)cc2[C@H]2CCC[C@@H]12
inactive: HCC 2998 > 100 µM | SNB-75 72.3 µM | OVCAR-4 56.9 µM | M14 > 100 µM | Malme-3M > 100 µM | MOLT-4 > 100 µM | A549 88.3 µM | SR > 100 µM | SF-268 > 100 µM | OVCAR-3 61.4 µM | NCI-H522 31.5 µM | SK-MEL-2 > 100 µM | SF-295 55.3 µM | UO-31 99.8 µM | UACC-62 > 100 µM | OVCAR-8 > 100 µM

c1ccc2nc(-c3ccc4c(c3)OCO4)ccc2c1
inactive: HCC 2998 38.3 µM | SNB-75 22.5 µM | OVCAR-4 24.8 µM | M14 54.2 µM | Malme-3M 18 µM | A549 49.2 µM | SR 16.7 µM | SF-268 37.7 µM | OVCAR-3 26.4 µM | NCI-H522 31.8 µM | SK-MEL-2 41.3 µM | HL-60 29.1 µM | SF-295 46.7 µM | UO-31 20 µM | OVCAR-8 43.5 µM
